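Values below derive from 48-hour exposures of cells grown in 96-well plates, with endpoints linearly interpolated between the two concentrations bracketing the appropriate inhibition level. GI50 = concentration required for 50% inhibition of growth. TGI denotes the concentration required for complete inhibition of growth.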
What was measured:
Assay in all cases: growth of human tumour cells (NCI), 48 h
[1] = tested on: 786-0 renal
[2] = tested on: A498 renal
[3] = tested on: A549 NSCLC
[4] = tested on: ACHN renal
[5] = tested on: BT-549 breast
[6] = tested on: CAKI-1 renal
[7] = tested on: CCRF-CEM leukemia
[8] = tested on: COLO 205 colon
[9] = tested on: DU-145 prostate
[10] = tested on: EKVX NSCLC
[11] = tested on: HCC-2998 colon
[12] = tested on: HCT-116 colon
[13] = tested on: HCT-15 colon
[14] = tested on: HL-60(TB) leukemia
[15] = tested on: HOP-62 NSCLC
[16] = tested on: HOP-92 NSCLC
[17] = tested on: HS 578T breast
[18] = tested on: HT29 colon
[19] = tested on: IGROV1 ovarian
[20] = tested on: K-562 leukemia
[21] = tested on: KM12 colon
[22] = tested on: LOX IMVI melanoma
[23] = tested on: M14 melanoma
[24] = tested on: MALME-3M melanoma
[25] = tested on: MCF7 breast
[26] = tested on: MDA-MB-231 breast
[27] = tested on: MDA-MB-435
[28] = tested on: MOLT-4 leukemia
[29] = tested on: NCI-H226 lung
[30] = tested on: NCI-H23 lung
[31] = tested on: NCI-H460 lung
[32] = tested on: NCI-H522 lung
[33] = tested on: NCI/ADR-RES ovarian
[34] = tested on: OVCAR-3 ovarian
[35] = tested on: OVCAR-4 ovarian
[36] = tested on: OVCAR-5 ovarian
[37] = tested on: OVCAR-8 ovarian
[38] = tested on: PC-3 prostate
[39] = tested on: RPMI-8226 leukemia
[40] = tested on: RXF 393 renal
[41] = tested on: SF-268 CNS
[42] = tested on: SF-295 CNS
[43] = tested on: SF-539 CNS
[44] = tested on: SK-MEL-2 melanoma
[45] = tested on: SK-MEL-28 melanoma
[46] = tested on: SK-MEL-5 melanoma
[47] = tested on: SK-OV-3 ovarian
[48] = tested on: SN12C renal
[49] = tested on: SNB-19 CNS
[50] = tested on: SNB-75 CNS
[51] = tested on: SR leukemia
[52] = tested on: SW-620 colon
[53] = tested on: T-47D breast
[54] = tested on: TK-10 renal
[55] = tested on: U251 CNS
[56] = tested on: UACC-257 melanoma
[57] = tested on: UACC-62 melanoma
[58] = tested on: UO-31 renal

N#CSCC(=O)c1ccc(Cl)cc1
GI50 [1]: 4.96 µM | TGI [1]: 21.3 µM | GI50 [2]: 5.59 µM | TGI [2]: 20.9 µM | GI50 [3]: 9.14 µM | TGI [3]: > 49.7 µM | GI50 [4]: 5.55 µM | TGI [4]: 19.9 µM | GI50 [5]: 2.69 µM | TGI [5]: 11.4 µM | GI50 [6]: 0.0182 µM | TGI [6]: 1.16 µM | GI50 [7]: 1.5 µM | TGI [7]: 20.6 µM | GI50 [8]: 2.65 µM | TGI [8]: 7.94 µM | GI50 [9]: 2.54 µM | TGI [9]: 6.15 µM | GI50 [10]: 4.99 µM | TGI [10]: 26.5 µM | GI50 [11]: 12.1 µM | TGI [11]: 27.8 µM | GI50 [12]: 3.09 µM | TGI [12]: 12.7 µM | GI50 [13]: 2.85 µM | TGI [13]: 32.2 µM | TGI [14]: > 22.3 µM | GI50 [15]: 5.19 µM | TGI [15]: 28.8 µM | GI50 [16]: 6.02 µM | TGI [16]: 29 µM | GI50 [17]: 2.9 µM | TGI [17]: 16.3 µM | GI50 [18]: 3.59 µM | TGI [18]: 19.7 µM | GI50 [19]: 1.33 µM | TGI [19]: 6.6 µM | GI50 [20]: 0.974 µM | TGI [20]: > 40.3 µM | GI50 [21]: 2.59 µM | TGI [21]: 7.33 µM | GI50 [22]: 3.07 µM | TGI [22]: 13.3 µM | GI50 [23]: 3.4 µM | TGI [23]: 15.1 µM | GI50 [24]: 5.76 µM | TGI [24]: 42.9 µM | GI50 [25]: 2.53 µM | TGI [25]: 13.6 µM | GI50 [26]: 3.57 µM | TGI [26]: 12.4 µM | GI50 [27]: 2.28 µM | TGI [27]: 6.37 µM | GI50 [28]: 1.03 µM | TGI [28]: > 33.1 µM | GI50 [29]: 10.8 µM | TGI [29]: 33.3 µM | GI50 [30]: 4.27 µM | TGI [30]: 32.3 µM | GI50 [31]: 3.16 µM | TGI [31]: 18.7 µM | GI50 [32]: 2.69 µM | TGI [32]: 9.51 µM | GI50 [33]: 3.11 µM | TGI [33]: 11 µM | GI50 [34]: 2.33 µM | TGI [34]: 5.26 µM | GI50 [35]: 12.4 µM | TGI [35]: > 100 µM | GI50 [36]: 5.39 µM | TGI [36]: 27.9 µM | GI50 [37]: 4.78 µM | TGI [37]: 22.4 µM | GI50 [38]: 3.95 µM | TGI [38]: 57.5 µM | GI50 [39]: 1.44 µM | TGI [39]: 4.65 µM | GI50 [40]: 2.05 µM | TGI [40]: 5.18 µM | GI50 [41]: 2.58 µM | TGI [41]: 8.31 µM | GI50 [42]: 2.89 µM | TGI [42]: 13.5 µM | GI50 [43]: 2.85 µM | TGI [43]: 14.9 µM | GI50 [44]: 5.45 µM | TGI [44]: 25.7 µM | GI50 [45]: 6.17 µM | TGI [45]: 19.8 µM | GI50 [46]: 2.31 µM | TGI [46]: 14.7 µM | GI50 [47]: 4.35 µM | TGI [47]: 30.8 µM | GI50 [48]: 3.69 µM | TGI [48]: 19 µM | GI50 [49]: 14.1 µM | TGI [49]: > 73 µM | GI50 [50]: 2.75 µM | TGI [50]: 22.2 µM | GI50 [51]: 0.19 µM | TGI [51]: > 24.6 µM | GI50 [52]: 2.13 µM | TGI [52]: 12.2 µM | GI50 [53]: 7.84 µM | TGI [53]: 67.9 µM | GI50 [54]: 3.21 µM | TGI [54]: 13.6 µM | GI50 [55]: 3.23 µM | TGI [55]: 16.6 µM | GI50 [56]: 5.64 µM | TGI [56]: > 28.6 µM | GI50 [57]: 6.4 µM | TGI [57]: 21.5 µM | GI50 [58]: 3.23 µM | TGI [58]: 13.5 µM

Source: PubChem BioAssay (NCI)
